The record followed here is publication PMC12040169 (PLOS Biology, 2025).

Each structure is given as a SMILES string.

The series is described as follows: in vitro. The following applies: human, hela cells, % viability.

Take `Cn1c(=O)n(C)c2cc(NC(=O)CSc3nc(Nc4ccccc4)nc(N4CCOCC4)n3)ccc21` [CBK269041]: the viability at 28.5 h, 10 µM stood at 111%.
With `COC(=O)c1cn(Cc2ccccc2)nn1` [CBK073903], the viability at 28.5 h, 10 µM came to 98.1%.
Under `CCCc1cc(C(=O)N2CCNCC2C(=O)N2CCN(C)CC2)ccn1` (centres unmarked) [CBK307619] stands 97.5%; under `Oc1cccnc1SCc1nc2ccccc2s1` [CBK016367], 112%; under `CCCNC(=O)Cn1nc(C)n2c(cc3ccsc32)c1=O` [CBK284061], 78.2%.
Under `O=C(O)CCc1nc2ccccc2s1` [CBK264071] stands 115%; under `Cc1nccn1CCC1CCN(C(=O)CCCn2ccnc2)CC1` [CBK281988], 95.3%.
As for `Cn1cnc(C(=O)N2CCC[C@@H]3NC(=O)c4ccccc4OCCCCC[C@@H]32)c1` [CBK292122], the figure is 114%.
With `COc1ccc(C2C(C(=O)O)c3ccccc3C(=O)N2C)cc1` (centres unmarked) [CBK286847], the viability at 28.5 h, 10 µM came out at 85.8%.
Turning to `N#C/C(=C/c1cn(CCC(N)=O)c2ccccc12)c1ccc2c(c1)OCO2` [CBK267319], the viability at 28.5 h, 10 µM amounted to 90.2%.
Take `CC1Cc2cc(C(O)(CCN(C)C)c3ccccc3)ccc2O1` (centres unmarked) [CBK011764]: the viability at 28.5 h, 10 µM came to 110%.
As for `CC(C(=O)NC1CCCN(CC(F)(F)F)C1)n1cnc2ccccc21` (centres unmarked) [CBK304185], the figure is 96.6%; as for `CC(C)NC(=O)CN1CCC(Oc2nccnc2OCc2ccc(Cl)c(Cl)c2)CC1` [CBK153791], 92.2%.
Under `Cc1sc2ncn(CC(=O)Nc3cccnc3)c(=O)c2c1C` [CBK306057] stands 92.5%; under `Cc1noc(C)c1C(=O)N1CCC[C@@H](C(=O)c2ccccc2F)C1` [CBK282249], 90.5%; under `O=C(CSc1nnc(-c2ccc3c(c2)OCO3)n1-c1ccccc1)c1ccc(Cl)cc1` [CBK263559], 100%.
Under `OC[C@]1(c2ccccc2)CC[C@H](N2CCCC2)CC1` [CBK016010] stands 85.5%; under `CC1CCCCN1C(=O)Cn1cnc2c(Cl)cc(Cl)cc2c1=O` (centres unmarked) [CBK306149], 90.3%.
Take `CCc1noc(CN2CCCC(c3ccc(C(=O)O)cc3)C2)n1` (centres unmarked) [CBK307102]: the viability at 28.5 h, 10 µM turned out to be 105%.
Regarding `CCC(C)NC(=O)C1(Cc2ccc(-c3cc(F)ccc3OC)cc2)CCOCC1` (centres unmarked) [CBK285539], the viability at 28.5 h, 10 µM is 102%.
As for `CC(=O)OC(COc1cccc(Cl)c1)Cn1cnc2cc(C)c(C)cc21` (centres unmarked) [CBK266152], the figure is 86.6%; as for `O=C(CCn1cc(Br)ccc1=O)NC1CCN(Cc2ccccc2)CC1` [CBK305778], 101%.
As for `C/C(=N\NC(=O)CC1(C)OCCO1)c1oc(C)cc1C` [CBK022234], the figure is 99.1%; as for `CC1(C)CC(=O)c2sc(NC(=O)c3ccc(Oc4ccccc4)cc3)nc2C1` [CBK144106], 95.5%; as for `Cc1ccccc1N1C(=O)c2ccc(C(=O)OCC(=O)c3ccc(Cl)c([N+](=O)[O-])c3)cc2C1=O` [CBK264108], 91.3%.
Under `Cc1nnc(Sc2ccc([N+](=O)[O-])cc2Cl)n1Cc1ccccc1` [CBK269694] stands 102%; under `CC(C)Nc1ccc(C(=O)N2CCC(N3CCOCC3)CC2)cn1` [CBK304353], 105%; under `Cc1cccnc1NC(=O)c1cc(O)nc2ccccc12` [CBK300499], 91.6%.
`c1ccc2c(c1)CCN(Cc1ccc3ccccc3c1)C2` [CBK126397]: the viability at 28.5 h, 10 µM turned out to be 122%.
Under `Cc1ccc(-n2cccn2)cc1S(=O)(=O)NCCN1CCCCC1CO` (centres unmarked) [CBK307163] stands 122%.
As for `CSCCCNC(=O)N1CCCC(C(=O)O)C1` (centres unmarked) [CBK161343], the figure is 92.1%; as for `Cc1cc(C)n(-c2ccc3nnc(CCC(=O)O)n3n2)n1` [CBK307616], 97%; as for `O=S(=O)(Nc1nnn[nH]1)c1ccc(N2CCOCC2)nc1` [CBK062385], 99%.
As for `C[C@@H](Cn1nc2c(cc1=O)CCCC2)NC(=O)c1ccc(F)cc1` [CBK284562], the figure is 91.3%; as for `Cc1cc(NS(=O)(=O)c2cnn(-c3ccccc3)c2C)n(C)n1` [CBK067252], 107%; as for `c1ccc(C(CCN2CCC[C@@H]2CN2CCCC2)c2ccccc2)cc1` [CBK149109], 89.7%.
Regarding `COc1ccc2[nH]cc(CCNC(=O)CCC(=O)O)c2c1` [CBK116605], the viability at 28.5 h, 10 µM is 96.5%.
Under `O=C(Nc1cccc(-c2csnn2)c1)c1ccco1` [CBK270255] stands 85.2%; under `C=CCn1c(Cc2csc(NC(=O)c3ccc(S(C)(=O)=O)cc3)n2)n[nH]c1=S` [CBK295340], 97%; under `O=C(OCC#CCSc1nnc(-c2ccccc2)o1)c1ccc([N+](=O)[O-])cc1` [CBK265588], 107%.
Consider `CCOC(=O)c1c(N)sc(C(=O)Nc2cccc([N+](=O)[O-])c2)c1C` [CBK066829], for which the viability at 28.5 h, 10 µM stood at 91.2%.
As for `Cc1nn(C)cc1C(C)NC(=O)c1cn2cccc(C)c2n1` (centres unmarked) [CBK281731], the figure is 92.1%.
Under `O=C1CCCN1c1ccc(S(=O)(=O)NC2C3CCCCC32)cc1` (centres unmarked) [CBK282842] stands 101%; under `O=C1CN(C(=O)NCC2CCCCC2)CCN1` [CBK155854], 85.9%.
As for `CCOC(=O)C(CNC(=O)c1c(CC)noc1C)Cc1ccccc1` (centres unmarked) [CBK305961], the viability at 28.5 h, 10 µM turned out to be 90.8%.
As for `O=c1[nH]c2c(-c3ccccc3)nnn2c2ccccc12` [CBK288047], the figure is 98.3%; as for `FC(F)(F)c1cccc(OCCN2CCNCC2)n1` [CBK113291], 91.5%; as for `CNC(=O)c1sc2ccccc2c1C1CCN(Cc2ccc(OC)c(OC(C)C)c2)C1` (centres unmarked) [CBK285928], 95.5%.
Under `O=[N+]([O-])c1ccc(O)c(/C=N/c2ccc(Oc3ccc(/N=C/c4cc([N+](=O)[O-])ccc4O)cc3)cc2)c1` [CBK261093] stands 96.7%; under `Cc1cc(C)n(CCCC(=O)N2CCc3ncc(Cl)cc3C2)n1` [CBK284852], 103%; under `CCNS(=O)(=O)C1CCN(c2cc(C#N)ccc2C(F)(F)F)C1` (centres unmarked) [CBK305402], 96.2%.
As for `CCCn1ncnc1C(C)NC(=O)Nc1ccnn1CC(C)C` (centres unmarked) [CBK307545], the figure is 116%; as for `Cn1c(=O)c2c(ncn2Cc2ccccc2)n(C)c1=O` [CBK133402], 102%; as for `Cc1ccc(NC(=O)CCC(=O)O)c(C(=O)c2ccccc2)c1` [CBK262611], 108%.
Regarding `C/C(=N\N=C1\N=C(O)C(CC(=O)NCc2ccccc2)S1)c1ccco1` (centres unmarked) [CBK263698], the viability at 28.5 h, 10 µM is 89.9%.
Under `O=C(c1cncc(O)c1)N1C2CCC1CC(c1ccc(F)cc1)C2` (centres unmarked) [CBK283764] stands 96.4%; under `O=C1CCCN1CCCNC(=O)N1CCN(CCc2ccccc2)CC1` [CBK158932], 91%.
As for `COc1ccccc1C(NC(=O)C1CCN(CCCN2C(=O)CC3CCCCC3C2=O)CC1)c1ccccn1` (centres unmarked) [CBK147940], the figure is 95%.
As for `CCN(CC)CCNC(=O)N(CC)Cc1ccncc1` [CBK155151], the viability at 28.5 h, 10 µM was determined as 105%.
Consider `C#CCOc1cn([C@H]2C[C@@H](O)[C@@H](CO)O2)c(=O)[nH]c1=O` [CBK201278], for which the viability at 28.5 h, 10 µM came out at 91.7%.
As for `Cc1nn(C)c(C)c1S(=O)(=O)n1ccn(-c2ccc(N(C)C)cc2)c1=O` [CBK106610], the figure is 93%; as for `O=C(O)CNS(=O)(=O)c1cccc2nsnc12` [CBK261136], 96.8%; as for `Cc1ccccc1Sc1cc(C(F)(F)F)ccn1` [CBK115233], 94.4%.
Take `Cc1ccccc1SCC(C)C(=O)O` (centres unmarked) [CBK012292]: the viability at 28.5 h, 10 µM was 83%.
As for `COc1cccc2cc(C(=O)C3=C(O)C(=O)N(CCN4CCOCC4)C3c3ccc(F)cc3)oc12` (centres unmarked) [CBK266414], the figure is 93.3%; as for `CCNC(=O)CNc1cc(C#N)ccc1C(F)(F)F` [CBK306432], 86.5%; as for `COc1ccccc1N1CCN(C(=O)CCCC(=O)O)CC1` [CBK286904], 80.8%.
`c1ccc(COc2cccc(CNCCN3CCOCC3)c2)cc1` [CBK278226C]: the viability at 28.5 h, 10 µM was determined as 95.8%.
Under `CCn1cc(CN2CCC(O)(c3ccc(C)cc3)CC2)cn1` [CBK282735] stands 85.7%; under `CCN(CC)C1CCN(C(=O)Nc2cc(NC(C)=O)ccc2F)C1` (centres unmarked) [CBK305207], 88.7%; under `O=C1NN(c2ccc(F)c(Cl)c2)C(=O)/C1=C/c1ccc(-c2ccc(Cl)cc2)o1` [CBK095978], 98.1%.
As for `Cn1cc(CCNC(=O)N2CCCN(Cc3cccs3)CC2)cn1` [CBK305393], the figure is 89.1%; as for `CCN(C(=O)c1cnc2n(c1=O)CCS2)c1ccccc1` [CBK287384], 103%.
On to `O=C(Nc1ccccc1C(=O)NCCN1CCOCC1)c1cccs1` [CBK270077], for which the viability at 28.5 h, 10 µM came out at 94.4%.
Under `O=C(Cc1cccc2ccccc12)Nc1cc(C(=O)O)cc(C(=O)O)c1` [CBK268475] stands 94.4%.
As for `Cc1ccc(N2C(=O)c3ccc(S(=O)(=O)c4cccc(C(=O)O)c4)cc3C2=O)c(C)c1` [CBK262783], the figure is 86.2%; as for `CN1C(=O)c2cccc3c(S(=O)(=O)N4CCN(S(=O)(=O)c5ccc6c7c(cccc57)C(=O)N6C)CC4)ccc1c23` [CBK269140], 98.2%; as for `COc1ccc(C(=O)NNC(=O)c2cc(OC)cc(OC)c2)cc1` [CBK262616], 96%.
In the case of `CC(C(=O)Nc1sc2c(c1C(=O)NCc1ccco1)CCCC2)N1C(=O)c2ccccc2C1=O` (centres unmarked) [CBK265603], the viability at 28.5 h, 10 µM stood at 86.6%.
As for `COc1cc(Nc2cccc(-c3ccco3)n2)cc(OC)c1OC` [CBK037724], the figure is 108%.
